One series has as its target T1, rat brain MAO-A (Rattus norvegicus, UniProt P21396).
T1 construct: from tissue; host or cells: rat brain homogenate, 4500 g pellet
T1 sequence (P21396 1-526): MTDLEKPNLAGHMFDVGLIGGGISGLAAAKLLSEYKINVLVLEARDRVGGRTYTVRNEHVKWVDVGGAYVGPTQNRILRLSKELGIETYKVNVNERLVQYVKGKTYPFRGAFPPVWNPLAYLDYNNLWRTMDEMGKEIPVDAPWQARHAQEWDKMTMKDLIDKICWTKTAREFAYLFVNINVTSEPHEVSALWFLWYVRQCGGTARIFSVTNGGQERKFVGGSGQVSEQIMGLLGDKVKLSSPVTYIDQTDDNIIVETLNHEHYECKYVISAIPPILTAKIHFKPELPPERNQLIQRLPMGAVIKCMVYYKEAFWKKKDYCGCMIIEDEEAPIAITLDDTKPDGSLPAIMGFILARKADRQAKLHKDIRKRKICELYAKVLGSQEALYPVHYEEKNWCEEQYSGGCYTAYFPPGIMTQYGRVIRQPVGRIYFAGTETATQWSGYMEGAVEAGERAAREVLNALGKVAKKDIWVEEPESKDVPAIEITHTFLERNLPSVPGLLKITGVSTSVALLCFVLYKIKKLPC
As to the kind of experiment: In vitro inhibition of rat brain MAO-A. Type of series: biochemical. Particulars: rat brain homogenate. The procedure: (§1) Rats were decapitated and the brains were quickly taken into a weighted ice-cold sucrose buffer (0.32 M), and their weights were determined. All subsequent procedures were performed at 0-4° C. The brains were homogenized in 0.25 M sucrose (one part tissue to 20 parts sucrose) in a Teflon glass homogenizer followed by the addition of sucrose buffer to a final concentration of 10% homogenate. The homogenates were centrifuged at 600 g for 15 min. The supernatant fraction was taken out and centrifuged at 4500 g for 30 min, the pellet was diluted in 0.32 M sucrose buffer and kept frozen for later assaying of MAO. Protein concentration was determined with Bradford reagent at 595 nm, using bovine serum albumin as a standard.
(§2) The test compound was added to a suitable dilution of the enzyme preparation (70 μg protein for MAO-B and 150 μg MAO-A assay) in 0.05 M phosphate buffer (pH 7.4). The mixture was incubated together with […], a specific inhibitor of MAO-B (for determination of MAO-A) or […] clorgylin, a specific inhibitor of MAO-A (for determination of MAO-B). Incubation was carried for 1 h at 37° C. before addition of ^14C-5-hydroxytryptamine binoxalate ([…]) for determination of MAO-A, or ^14C-phenylethylamine 100 µM for determination of MAO-B, and incubation continued for 30 min or 20 min, respectively. The reaction was stopped with 2 M ice-cold citric acid, and the metabolites were extracted and determined by liquid-scintillation counting in cpm units.
(§3) MAO-A and MAO-B activities were determined in rat brain homogenate in vitro following incubation with varying concentrations of the test compounds.
In another experiment, the in vitro inhibitory activity of HLA20, M32, VK-28, M30, M31, and propargylamine (P) was tested against rat brain MAO-A. The test compounds were added to buffer containing 10^−7M deprenyl and were incubated with the tissue homogenate for 60 min at 37° C. before addition of ^14C-5-hydroxytryptamine. MAO-A activity in presence of the test compound was expressed as a percentage of that in control samples.

A further series has as its target T2, rat brain MAO-B (Rattus norvegicus, UniProt P19643).
T2 construct: from tissue; host or cells: rat brain homogenate, 4500 g pellet
T2 sequence (P19643 1-520): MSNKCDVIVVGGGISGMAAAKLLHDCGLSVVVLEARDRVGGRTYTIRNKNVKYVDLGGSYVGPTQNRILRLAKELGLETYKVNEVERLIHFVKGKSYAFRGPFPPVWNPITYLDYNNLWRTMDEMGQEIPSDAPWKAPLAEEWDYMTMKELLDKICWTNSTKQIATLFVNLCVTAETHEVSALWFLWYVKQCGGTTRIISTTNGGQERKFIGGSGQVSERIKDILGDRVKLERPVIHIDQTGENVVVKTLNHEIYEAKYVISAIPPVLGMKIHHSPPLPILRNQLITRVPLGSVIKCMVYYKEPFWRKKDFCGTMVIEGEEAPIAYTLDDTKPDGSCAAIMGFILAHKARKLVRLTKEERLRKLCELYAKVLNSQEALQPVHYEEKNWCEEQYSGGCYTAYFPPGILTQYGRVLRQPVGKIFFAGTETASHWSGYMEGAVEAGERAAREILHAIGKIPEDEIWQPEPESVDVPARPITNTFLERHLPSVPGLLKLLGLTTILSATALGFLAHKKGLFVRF
As to the kind of experiment: In vitro inhibition of rat brain MAO-B. In kind it is biochemical. Particulars: for pIC50: rat brain homogenate; for inhibition at 100 µM: read-out: inhibition of MAO-B. Here is the method:
as §1, §2, §3
MAO-B activity in presence of the test compound was expressed as a percentage of that in control samples.

In a further series the test system is PC12 cells. Nature of the series: Neuroprotection of PC12 cells against serum-deprivation induced apoptosis (MTT test). In kind it is cell-based, rat. Here is the method:
Rat PC12 cells, originated from rat pheochromocytoma, were grown at 37° C., in a humid 5% CO2, 95% air environment, in a growth medium containing Dulbecco's modified Eagle's Medium (DMEM, GIBCO, BRL) supplemented with glucose (1 mg/1 ml), 5% fetal calf serum, 10% horse serum, and 1% of a mixture of streptomycin/penicillin. On confluence, the culture was removed and the cells were detached by vigorous washing, centrifuged at 200 g for 5 min and resuspended in DMEM with full serum content. 0.5×10^4 cells/well were placed in microtiter plates (96 wells) precoated with collagen (10 μg/cm^2 were allowed to attach for 24 h before treatment).
Twenty-four hours after attachment of the PC12 cells as described in (g), the medium was replaced with DMEM containing 0.1% BSA. The test compounds were added to the cells after 1 h of incubation. After 24 h incubation, the cells were subjected to MTT test as previously described (Gassen et al., 1998). The absorption was determined in a Perkin-Elmer Dual Wavelength Eliza-Reader at λ=570/650 nm after automatic subtraction of background readings. The results are expressed as percentage of the untreated control.
PC12 cells were grown in serum-free medium alone or in serum-free medium with different concentration of the chelators VK-28, M32, HLA20 and Rasagiline. After 24 h incubation, the cells were subjected to MTT test.
Cell viability was expressed as a percentage of cells cultured in medium supplemented with serum, which served as the control group and was designated as 100%. […] Experimental data are shown as mean±SD (r=6).

The results in this text go back to patent US8058442B2 (Technion Research and Development Foundation Ltd., priority 2002, dated 2011).

pIC50: −log10 of the molar value. Counter-ions that a name gives are not always drawn. Some results are limits rather than exact numbers.

Turning to `NC(Cc1ccc(O)c2ncccc12)C(=O)O` (racemic) (as salt: salt) [HLM8, DL-3-(8-hydroxyquinolin-5-yl)alanine], the melting point was 194 °C (dec.).

For the molecule `C#CCN(C)Cc1ccc(O)c2ncccc12` [Compound M30], the pIC50 against rat brain MAO-A and at rat brain MAO-B was above 7.00 each time.

As to `C#CCNC(Cc1ccc(O)c2ncccc12)C(=O)OCC` (stereo not drawn) [Compound M31], the “effect on MAO-A” value at rat brain MAO-A is given as “almost no effect”. Besides, the inhibition at 100 µM at rat brain MAO-B was determined as 14.2%.

Consider `CCOC(=O)C(CS)NCc1ccc(O)c2ncccc12` (stereo not drawn) [Compound M32], for which the “effect on MAO-A” value on rat brain MAO-A was “almost no effect”. The inhibition at 100 µM on rat brain MAO-B was 17.2%. Also, the “number of survival cells (cell viability, % of cells cultured with serum)” value in the series on PC12 cells (0.1 μM chelator, serum-free medium, 24 h, serum-free control 38%) came to 59%. For the same molecule, in the series with PC12 cells (1 or 10 μM, compared with 0.1 μM), the “change in the protection against PC12 cell death induced by serum withdrawal” value was “no significant change in the protection”.

Take `CCOC(=O)C(C)(NC(=O)Cc1ccc(O)c2ncccc12)C(=O)OCC` [HLM7, diethyl 8-hydroxyquinolin-5-yl-methyl-acetamidomalonate]: the melting point was 153 to 154 °C.

Regarding `C#CCN` [Propargylamine, propargylamine, reference compound], the pIC50 at rat brain MAO-A was 4.18; against rat brain MAO-B, 5.00.
